Measurements taken from patent US11208385B2, “N-substituted imidazole carboxylate compound, preparation method and use” (priority 2017, dated 2021).
Where two headings read alike, the source gives them in different places.

Tests used:
corticosterone = assay: Serum corticosterone after dexamethasone suppression and ACTH stimulation in rats (ELISA); conditions: ACTH stimulation
Method: Male rats (250˜300 g) were chosen as test animals, and the content of corticosterone in serum of rats was measured using ELISA kit and ELISA reader. 65 SD rats were randomly divided into 13 groups, five rats for each group. […] 30 min After administration of ACTH, the concentrations of two cortical hormones in animal body were determined.

SD rats [1] = tested on: SD rats
Method: 30 male SD rats weighing 250˜300 g were randomly divided into 6 groups, 5 rats for one group. […] Each drug was continually infused to rats via caudal vein, and made the righting reflex abolish, and the abolition of righting reflex was maintained for 1 hour. The wake time after drug withdrawal and the time of full recovery were recorded.

11-β hydroxylase = molecular target: T1, 11-β hydroxylase (Homo sapiens, UniProt P15538); conditions: 11-β hydroxylase versus GABAA receptor; cited from earlier work
T1 sequence (P15538 25-503): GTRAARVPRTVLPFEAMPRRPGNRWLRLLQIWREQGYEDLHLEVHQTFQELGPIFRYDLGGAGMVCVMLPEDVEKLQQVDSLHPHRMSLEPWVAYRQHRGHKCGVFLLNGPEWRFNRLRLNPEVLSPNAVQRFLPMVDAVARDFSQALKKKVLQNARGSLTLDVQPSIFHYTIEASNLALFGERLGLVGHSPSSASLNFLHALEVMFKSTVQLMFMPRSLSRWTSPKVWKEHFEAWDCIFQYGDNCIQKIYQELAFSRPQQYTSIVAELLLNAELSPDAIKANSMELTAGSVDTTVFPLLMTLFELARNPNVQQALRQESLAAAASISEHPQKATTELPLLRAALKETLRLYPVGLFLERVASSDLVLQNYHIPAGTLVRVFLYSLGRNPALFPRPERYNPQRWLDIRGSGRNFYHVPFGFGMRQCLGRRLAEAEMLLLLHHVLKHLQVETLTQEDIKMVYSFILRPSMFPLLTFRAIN

[2] = In vitro degradation experiment in rat liver homogenate (HPLC); assay type: in vitro ADME; conditions: for Residual rate at 5 min (%) / Residual rate at 10 min (%) / Residual rate at 20 min (%): rat liver homogenate, 37° C., 50 μg/mL
Method: In Vitro Degradation Experiment of Compounds.
Chromatographic condition: mobile phase is methanol: H2O=65:35, and the water phase contains 0.06% ammonium acetate; the flow rate is 1 mL/min; the column temperature is 25° C.
Apparatus: Agilent 1100 Series. Chromatographic column: Aglent Eclipse Plus C18 column, 5 μm 4.6*[…].
The linear range is 1-50 μg/mL.
After fasting for 24 h, male SD rats were treated to collect liver, and the water on the surface of liver was removed using the filter paper, then liver was weighed. […] Then, the homogenate was centrifugated at 10000 g for 20 min at the temperature of 4° C. The supernatant solution was collected, and 14 samples (2 mL) of liver homogenate were taken out and warmed to 37° C. in water bath. Each compound (content 10 mg/mL, 10 μl) was added, respectively, to make a concentration of 50 μg/mL in liver homogenate.
[…] After centrifugation, the supernatant solution was taken out and injected. The concentration of each compound at each time point was detected, that was divided by the initial concentration of each compound, to obtain the degradation ratio of each compound.

[3] = in vivo, 3 mg/kg; cited from earlier work
SD rats [4] = tested on: SD rats; remark: listed apart in the source
Method: 150 male SD rats weighing 250˜300 g were randomly divided into 15 groups, 10 rats for one group. […] Drugs were injected to rats via caudal vein, and the injection time was 15 seconds. The abolition of righting reflex for 30 s or above was used as the indicator producing anaesthetic effect.

## CCOC(=O)c1cncn1[C@H](C)c1ccccc1 [Etomidate, reference compound]
corticosterone
  Effect on self-synthesis of adrenal cortical hormones: significantly suppress
SD rats [1]; after 1 h continual infusion, from recovery of righting reflex to free walk
  Time of complete recovery: 85 ± 29 min
SD rats [1]; after 1 h continual infusion, recovery time of righting reflex after discontinuance
  Wake time after drug withdrawal: 18 ± 10 min
SD rats [1]; continual infusion for 1 h
  Incidence rate (%) of muscle tremor: 60%
11-β hydroxylase
  Combining capacity with 11-β hydroxylase relative to GABAA receptor: 100 times
[2]; comparative experiment
  Decomposition under the action of liver homogenate of rats: slowly decomposed
[2]
  Residual rate at 5 min (%): 97.9%
  Residual rate at 10 min (%): 95.9%
  Residual rate at 20 min (%): 95.9%
[3]
  Minimum effective concentration producing anaesthetic effect in plasma: 200 ng/mL
  Minimum effective concentration to inhibit the synthesis of cortical hormones: 8 ng/mL
  Time of maintaining the drug concentration of >8 ng/mL in plasma: 8 h
  Time of maintaining the drug concentration of >200 ng/mL in plasma: 8 min
SD rats [4]; equivalent dose of anesthesia
  Onset of anaesthesia: immediately anesthetize the rats
SD rats [4]; single iv dose of 2ED50, 10 rats per group
  Incidence rate (%) of muscle tremor: 40%
SD rats [4]; single iv dose of 2ED50, from abolition to recovery of righting reflex
  Time of keeping anaesthesia: 6.3 ± 2.8 min
SD rats [4]; single iv dose of 2ED50, from recovery of righting reflex to free walk
  Time of complete recovery: 7.2 ± 1.7 min

## COC(=O)CCOC(=O)c1cncn1[C@H](C)c1ccccc1 [MOC-ET, reference compound]
corticosterone; 30 min after drug withdrawal
  Cortex function of test animals after drug withdrawal: obviously recovered
[2]
  Residual rate at 5 min (%): 0%
  Residual rate at 10 min (%): 0%
  Residual rate at 20 min (%): 0%

## COC(=O)C1(OC(=O)c2cncn2[C@H](C)c2ccccc2)CC1 [CPMM, reference compound]
SD rats [1]; male, SD, rat, in vivo
  Incidence rate (%) of muscle tremor: 90%
SD rats [1]; rat, in vivo
  Time of complete recovery: 25 ± 9 min
  Wake time after drug withdrawal: 12 ± 7 min
[2]
  Residual rate at 5 min (%): 0%
  Residual rate at 10 min (%): 0%
  Residual rate at 20 min (%): 0%
SD rats [4]; male, SD, rat, in vivo, iv
  Incidence rate (%) of muscle tremor: 80%
SD rats [4]; rat, in vivo
  Onset of anaesthesia: immediately anesthetize the rats
SD rats [4]; rat, in vivo, iv
  Time of complete recovery: 2.3 ± 2.1 min
  Time of keeping anaesthesia: 2.5 ± 1.3 min
